# Data taken from patent US20260226034A1 (The Rockefeller University, priority 2023, published 2026).
# Target: NSP14 (Severe acute respiratory syndrome coronavirus 2, UniProt P0DTD1)
# Assay: NSP14 MTase inhibition assay at 37° C. (MTase-Glo SAH detection)
# Type: biochemical, SARS-CoV-2
# Conditions: 0.3 nM NSP14, 2.5 μM SAM, 2.5 μM GpppA RNA, 45 min at 37° C.; read-out: Nsp14 Mtase Inh. IC50
row,Compound,IC50 [nM]
1,Cc1c(S(=O)(=O)c2ccc3[nH]ncc3c2)cc(C(=O)N[C@@H]2CCN(c3cccc(C#N)c3C#N)C2)n1C [A.109],< 0.15
2,Cc1c(S(=O)(=O)c2ccccc2)cc(C(=O)NCc2c(F)ccc3cnn(C4CC4)c23)n1C [A.10],4.9
3,"Cc1c(S(=O)(=O)c2ccc(C(C)O)cc2)cc(C(=O)NCc2cccc3cnn(C)c23)n1C (centres unmarked) [A.32, 4-[4-(1-hydroxyethyl)phenyl]sulfonyl-1,5-dimethyl-N-[(1-methylindazol-7-yl)methyl]pyrrole-2-carboxamide]",389
4,Cc1c(S(=O)(=O)c2ccc3[nH]ncc3c2)cc(C(=O)N[C@@H]2CCN(c3ccc(F)cc3C#N)C2)n1C [A.82],0.45
5,Cc1c(S(=O)(=O)c2ccc3[nH]ncc3c2)cc(C(=O)N[C@H]2C[C@@H](N(C)c3ncc(F)cn3)C2)n1C [A.98],0.39

# Same assay, conditions: 37° C., 0.3 nM NSP14, 2.5 μM SAM, 2.5 μM GpppA RNA; read-out: Nsp14 Mtase Inh. IC50
row,Compound,IC50 [nM]
1,Cc1cc(C)c(CNC(=O)c2cc(S(=O)(=O)c3ccc4[nH]ncc4c3)c(C)n2C)c(=O)[nH]1 [B.161],2.7
2,Cc1c(S(=O)(=O)c2ccc3[nH]ncc3c2)cc(C(=O)NCc2cc(F)cc3cnn(C)c23)n1C [B.96],1
3,Cc1c(S(=O)(=O)c2ccc3[nH]nc(F)c3c2)cc(C(=O)NC2CCc3c2ccc(=O)n3C)n1C (racemic) [B.178],21
4,Cc1c(S(=O)(=O)c2ccc3[nH]ncc3c2)cc(C(=O)NCc2ncnc3ncn(C)c23)n1C [B.129],< 0.15
5,Cc1c(S(=O)(=O)c2cc(F)c3[nH]ncc3c2)cc(C(=O)NCc2c(F)ccc3ncn(C4CC4)c23)n1C [B.102],< 0.15
6,Cc1c(S(=O)(=O)c2ccc3[nH]ncc3c2)cc(C(=O)NC2CCc3cc(C#N)ccc32)n1C (centres unmarked) [B.54],2.3
